In patent US7176224B2, “Oxazolyl-aryloxyacetic acid derivatives and their use as PPAR agonists” (Eli Lilly and Company, priority 2000, dated 2007):

Experiments:
[1] = system: db/db mice; assay: Evaluation of glucose levels in db/db mice; assay type: in vivo; conditions: 30 mg/kg oral gavage daily for 7 days; 100% = glucose not differing from lean values
Method: Five week old male diabetic (db/db) mice [C57BlKs/j-m +/+ Lepr(db), Jackson Laboratory, Bar Harbor, Me.] or lean littermates (DB/?) were housed 6 per cage (10″20″8″ with aspen chip bedding) with food (Purina 5015) and water available at all times. After an acclimation period of 2 weeks, animals were individually identified by ear notches, weighed, and bled via the tail vein for determination of initial glucose levels. Blood was collected (100 μl) from unfasted animals by wrapping each mouse in a towel, cutting the tip of the tail with a scalpel, and milking blood from the tail into a heparinized capillary tube (Fisher) balanced on the edge of the bench. Sample was discharged into a heparinized microtainer with gel separator (VWR) and retained on ice. Plasma was obtained after centrifugation at 4° C. and glucose measured immediately. Remaining plasma was frozen until the completion of the experiment, when glucose and triglycerides were assayed in all samples. […]
Glucose was measured colorimetrically using commercially purchased reagents (Sigma #315-500). […] The absorbance of the dye produced is linearly related to the analyte in the sample. […] Standards (Sigma #339-11, Sigma #16-11, and Sigma #CC0534 for glucose, triglycerides and total cholesterol, respectively), quality control plasma (Sigma # A2034), and samples (2 or 5 μl/well) were measured in duplicate using 200 μl of reagent. […]

[2] = system: huPPARγ; assay: Cotransfection assay in CV-1 cells, luciferase reporter; assay type: cell-based, human; conditions: GAL4 chimeric system, relative to agonist reference molecule
Method: […] binding (ABCD binding) was carried out using SPA technology with PPAR receptors. […] Cotransfection assays were carried out in CV-1 cells. The reporter plasmid contained an acylCoA oxidase (AOX) PPRE and TK promoter upstream of the luciferase reporter cDNA. Appropriate PPARs and RXRα were constitutively expressed using plasmids containing the CMV promoter. […] In order to eliminate such interference, a GAL4 chimeric system was used in which the DNA binding domain of the transfected PPAR was replaced by that of GAL4, and the GAL4 response element was utilized in place of the AOX PPRE. […] Efficacies were determined by computer fit to a concentration-response curve, or in some cases at a single high concentration of agonist (10 μM). For binding or cotransfection studies with receptors other than PPARs, similar assays were carried out using appropriate ligands, receptors, reporter constructs, etc., for that particular receptor.
These studies were carried out to evaluate the ability of compounds of the invention to bind to and/or activate various nuclear transcription factors, particularly huPPARα (“hu” indicates “human”) and huPPARγ. These studies provide in vitro data concerning efficacy and selectivity of compounds of the invention. Furthermore, binding and cotransfection data for compounds of the invention were compared with corresponding data for marketed compounds that act on either huPPARα or huPPARγ.

Cc1oc(-c2cccc(-c3ccc(F)cc3)c2)nc1CCOc1ccc(CC(C)(Oc2ccccc2)C(=O)O)cc1 (centres unmarked) [Example 4, 3-(4-{2-[2-(4′-Fluorobiphenyl-3-yl)-5-methyloxazol-4-yl]ethoxy}phenyl)-2-methyl-2-phenoxypropionic acid]
Glucose Normalisation [1]: 91% | huPPARγ CTF Efficacy [2]: 93%
